Like-named read-outs stand apart in the source and are kept apart here.
Legend:
[1] = system: P. berghei ookinete development; settings: for % inhibition, Replicate A / % inhibition, Replicate B: primary screen at 1 μM
[2] = system: 3D7-strain P. falciparum asexual parasites; test: P. falciparum asexual growth inhibition assay (Pf GIA); format: cell-based, Plasmodium falciparum; settings: dose response confirmation; read-out: Pf asexual growth inhibition assays IC50
In short: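 LDH readout: absorbance at 650 nm after 10 min at room temperature with lactate/APAD/NBT/diaphorase mix on thawed plates. Cultures (0.25% parasitemia, 2% hematocrit) were treated 72 h at 37°C in low-oxygen gas. Inhibition was normalised to 50 μM chloroquine and DMSO; n=3 biological replicates.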

HepG2 cells = test: HepG2 cytotoxicity assay; settings: for Pb ODA (this manuscript) HepG2 cytoxicity: HepG2 cytotoxicity listed with the Pb ODA data set (this manuscript); for IC50: read-out: HepG2 cytotoxicity assay IC50, dose response confirmation
In short: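 Here viability after a 48 h compound incubation (37°C, humidified 5% CO2) is measured by fluorescence and expressed as percent inhibition, with doxorubicin at 50 μM and DMSO as the bounding controls.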

[3] = read-out: Pb ODA (this manuscript) IC50, P. berghei ookinete development assay, this manuscript
[4] = read-out: Pb Ookinete development assay IC50, dose response confirmation
[5] = read-out: Pb ODA IC50, this manuscript
[6] = unified HepG2 value across the three screens
[7] = HepG2 values of the three screens unified

Row | SMILES | Is compound selective in assay? Pb ODA active? [1] | % inhibition, Replicate A [1] [%] | % inhibition, Replicate B [1] [%] | IC50 [1, 3] [nM] | IC50 [1, 4] [nM] | IC50 [2] [nM] | Pb ODA (this manuscript) HepG2 cytoxicity (HepG2 cells) [µM] | IC50 (HepG2 cells) [nM] | Is compound selective in assay? Pb ODA active? ([1]; 1: YES, 0: NO) | IC50 [1, 5] [nM] | Unified cytotox (HepG2 cells; [6]) [µM] | HepG2 cytoxicity (Pb ODA, this manuscript) (HepG2 cells) [µM] | Unified cytotox (HepG2 cells; [7]) [µM]
1 | CCC(CC)n1cc2c(ccc3nc(N)nc(N)c32)n1 [TCMDC-138019] | 0 (key: 1: YES; 0: NO) | 5.46 | 62.28 | 8220 | 8220 | 60 | 0.0017 | 1.7 |  |  |  |  | 
2 | C=C[C@H]1CN(CCCCCCC)CC[C@H]1CC(=O)Nc1cnnc2ccc(OC)cc12.O=C(O)C(=O)O [TCMDC-139791] |  | 17.33 | 54.49 |  | 2770 | 276 |  | 33900 | 1 (1: YES) | 2770 | 33.88 |  | 
3 | Cc1[nH]c(C)c(-c2ccc(OCCCc3ccccn3)cc2)c(=O)c1Br.Cl [TCMDC-135795] | 0 (key: 1: YES; 0: NO) | 72.29 | 89.65 | 590 | 594 | 6.55 | 0.17 | 170 |  |  |  |  | 
4 | Cc1[nH]c(C)c(-c2ccc(-c3ccc(OC(F)(F)F)cc3)cc2)c(=O)c1Br [TCMDC-134726] | 1 (key: 1: YES; 0: NO) | 101.74 | 103.66 | 25.7 | 26 | 19 | 7.76 | 7760 |  |  |  |  | 
5 | CCCCC1=CC2C(=O)C(C(=O)OC)=CN=C2C=C1OCc1ccccc1 (stereo not shown) [TCMDC-137492] |  | 85.39 | 106.84 |  | 3020 | 140 |  | 100000 | 1 (1: YES) | 3020 | 100.00 |  | 
6 | CC(C)N1CCN(CCCNc2c3ccccc3nc3ccccc23)CC1.Cl [TCMDC-137547] |  | 29.07 | 62.42 |  | 3710 | 518 |  | 14400 | 0 (0: NO) | 3710 |  | 14.45 | 14.45
7 | COc1ccc2ncc(Cl)c(CCN3CCC(NCc4ccc5c(n4)NC(=O)CO5)CC3)c2c1.Cl [TCMDC-141808] | 0 (key: 1: YES; 0: NO) | 43.21 | 70.93 |  | 1220 | 14 | 1.29 | 1290 |  |  |  |  | 
8 | COc1cc(F)c2ncc(C#N)c(CCN3CCC(NCc4ccc5c(c4)OCCO5)CC3)c2c1.Cl [TCMDC-135367] |  | 88.34 | 59.17 |  | 2170 | 640 |  | 38900 | 1 (1: YES) | 2170 | 38.90 |  | 
9 | COc1ccc2ncc(F)c(CCN3CCC(NCc4cc(C)c5c(c4)OCCO5)CC3)c2n1.Cl [TCMDC-136209] | 1 (key: 1: YES; 0: NO) | 56.92 | 30.84 | 1740 | 1740 | 449 | 21.38 | 21400 |  |  |  |  | 
10 | Cc1ccc(S(=O)(=O)N2CCCN(C(=O)c3cc(-c4ccccc4)n[nH]3)CC2)cc1 [TCMDC-125243] | 1 (key: 1: YES; 0: NO) | 53.41 | 33.70 | 5420 | 5420 | 273 | 100.00 | 100000 |  |  |  |  | 
11 | Cc1ccc(C2(CN3CCC(NC(=O)c4[nH]ncc4Cl)CC3)CCCCC2)cc1 [TCMDC-124838] | 1 (key: 1: YES; 0: NO) | 44.93 | 53.77 | 1430 | 1430 | 0.45 | 27.23 | 27200 |  |  |  |  | 
12 | Cc1[nH]c(C)c(-c2ccc(-c3ccc(OC(F)(F)F)cc3)nc2)c(=O)c1Cl [TCMDC-135677] |  | 103.64 | 93.64 |  | 265 | 397 |  | 23700 | 1 (1: YES) | 270 |  | 23.71 | 23.71
13 | COc1ccc2nccc([C@@H](O)CN3CCC(NC(=O)c4cc5c(F)cc(F)cc5[nH]4)CC3)c2c1.CS(=O)(=O)O [TCMDC-140781] |  | 60.81 | 64.63 |  | 1000 | 301 |  | 11200 | 1 (1: YES) | 1000 |  | 11.22 | 11.22
14 | COc1cc(OC)nc(C(Sc2ccc(NC(=O)c3cccs3)cc2)c2ccccc2)n1 (stereo not shown) [TCMDC-124257] |  | 29.98 | 55.99 |  | 973 | 184 |  | 100000 | 1 (1: YES) | 970 | 100.00 |  | 
15 | CC(C)c1nc(N2CCN(C(=S)NCc3ccccc3)CC2)c(C#N)c2c1COC(C)(C)C2 [TCMDC-124093] |  | 50.94 | 54.99 |  | 760 | 55 |  | 1.7 | 0 (0: NO) |  | 0.0017 |  | 
16 | COc1ccc2nc3cc(Cl)ccc3c(NCCN(C)C)c2c1 [TCMDC-139093] | 0 (key: 1: YES; 0: NO) | 73.14 | 67.89 |  | 2200 | 48 | 15.85 | 15800 |  |  |  |  | 
17 | O=C(NCC1CCCCC1)c1cc(=O)c2ccccc2o1 [TCMDC-123621] |  | 49.08 | 59.87 |  | 1040 | 563 |  | 100000 | 1 (1: YES) |  | 100.00 |  | 
18 | Cc1nc(C)c(-c2ccc(Sc3ccc(Cl)cc3)cc2)c(O)c1Br [TCMDC-137404] | 1 (key: 1: YES; 0: NO) | 89.90 | 109.40 | 80 | 77 | 53 | 100.00 | 100000 |  |  |  |  | 
19 | Cc1cc(SC(C)(C)C)cc2c(Cl)c(C(N)=O)cnc12 [TCMDC-135415] |  | 28.78 | 60.54 |  | 2710 | 69 |  | 1360 | 0 (0: NO) | 2710 | 1.36 |  | 

— paper PMC6753678, “Fueling Open Innovation for Malaria Transmission-Blocking Drugs: Hundreds of Molecules Targeting Early Parasite Mosquito Stages” (Frontiers in Microbiology, 2019)
